For orientation: EC50 means the midpoint of the concentration-response curve.

Where a SMILES comes first, the peptide text is derived from it. [ ]: non-standard residue; d: D form. Ala(5-hexenyl) = C=CCCCCC[C@H](N)C(=O)O

This assay deals with Phospholipid-transporting ATPase ABCA1 (Mus musculus, UniProt P41233). The experiment in a line: Induction of ABCA1-mediated [3H]cholesterol efflux in mouse RAW 264.7 macrophages after 24 hrs.
Sequence of Phospholipid-transporting ATPase ABCA1 (P41233 whole entry): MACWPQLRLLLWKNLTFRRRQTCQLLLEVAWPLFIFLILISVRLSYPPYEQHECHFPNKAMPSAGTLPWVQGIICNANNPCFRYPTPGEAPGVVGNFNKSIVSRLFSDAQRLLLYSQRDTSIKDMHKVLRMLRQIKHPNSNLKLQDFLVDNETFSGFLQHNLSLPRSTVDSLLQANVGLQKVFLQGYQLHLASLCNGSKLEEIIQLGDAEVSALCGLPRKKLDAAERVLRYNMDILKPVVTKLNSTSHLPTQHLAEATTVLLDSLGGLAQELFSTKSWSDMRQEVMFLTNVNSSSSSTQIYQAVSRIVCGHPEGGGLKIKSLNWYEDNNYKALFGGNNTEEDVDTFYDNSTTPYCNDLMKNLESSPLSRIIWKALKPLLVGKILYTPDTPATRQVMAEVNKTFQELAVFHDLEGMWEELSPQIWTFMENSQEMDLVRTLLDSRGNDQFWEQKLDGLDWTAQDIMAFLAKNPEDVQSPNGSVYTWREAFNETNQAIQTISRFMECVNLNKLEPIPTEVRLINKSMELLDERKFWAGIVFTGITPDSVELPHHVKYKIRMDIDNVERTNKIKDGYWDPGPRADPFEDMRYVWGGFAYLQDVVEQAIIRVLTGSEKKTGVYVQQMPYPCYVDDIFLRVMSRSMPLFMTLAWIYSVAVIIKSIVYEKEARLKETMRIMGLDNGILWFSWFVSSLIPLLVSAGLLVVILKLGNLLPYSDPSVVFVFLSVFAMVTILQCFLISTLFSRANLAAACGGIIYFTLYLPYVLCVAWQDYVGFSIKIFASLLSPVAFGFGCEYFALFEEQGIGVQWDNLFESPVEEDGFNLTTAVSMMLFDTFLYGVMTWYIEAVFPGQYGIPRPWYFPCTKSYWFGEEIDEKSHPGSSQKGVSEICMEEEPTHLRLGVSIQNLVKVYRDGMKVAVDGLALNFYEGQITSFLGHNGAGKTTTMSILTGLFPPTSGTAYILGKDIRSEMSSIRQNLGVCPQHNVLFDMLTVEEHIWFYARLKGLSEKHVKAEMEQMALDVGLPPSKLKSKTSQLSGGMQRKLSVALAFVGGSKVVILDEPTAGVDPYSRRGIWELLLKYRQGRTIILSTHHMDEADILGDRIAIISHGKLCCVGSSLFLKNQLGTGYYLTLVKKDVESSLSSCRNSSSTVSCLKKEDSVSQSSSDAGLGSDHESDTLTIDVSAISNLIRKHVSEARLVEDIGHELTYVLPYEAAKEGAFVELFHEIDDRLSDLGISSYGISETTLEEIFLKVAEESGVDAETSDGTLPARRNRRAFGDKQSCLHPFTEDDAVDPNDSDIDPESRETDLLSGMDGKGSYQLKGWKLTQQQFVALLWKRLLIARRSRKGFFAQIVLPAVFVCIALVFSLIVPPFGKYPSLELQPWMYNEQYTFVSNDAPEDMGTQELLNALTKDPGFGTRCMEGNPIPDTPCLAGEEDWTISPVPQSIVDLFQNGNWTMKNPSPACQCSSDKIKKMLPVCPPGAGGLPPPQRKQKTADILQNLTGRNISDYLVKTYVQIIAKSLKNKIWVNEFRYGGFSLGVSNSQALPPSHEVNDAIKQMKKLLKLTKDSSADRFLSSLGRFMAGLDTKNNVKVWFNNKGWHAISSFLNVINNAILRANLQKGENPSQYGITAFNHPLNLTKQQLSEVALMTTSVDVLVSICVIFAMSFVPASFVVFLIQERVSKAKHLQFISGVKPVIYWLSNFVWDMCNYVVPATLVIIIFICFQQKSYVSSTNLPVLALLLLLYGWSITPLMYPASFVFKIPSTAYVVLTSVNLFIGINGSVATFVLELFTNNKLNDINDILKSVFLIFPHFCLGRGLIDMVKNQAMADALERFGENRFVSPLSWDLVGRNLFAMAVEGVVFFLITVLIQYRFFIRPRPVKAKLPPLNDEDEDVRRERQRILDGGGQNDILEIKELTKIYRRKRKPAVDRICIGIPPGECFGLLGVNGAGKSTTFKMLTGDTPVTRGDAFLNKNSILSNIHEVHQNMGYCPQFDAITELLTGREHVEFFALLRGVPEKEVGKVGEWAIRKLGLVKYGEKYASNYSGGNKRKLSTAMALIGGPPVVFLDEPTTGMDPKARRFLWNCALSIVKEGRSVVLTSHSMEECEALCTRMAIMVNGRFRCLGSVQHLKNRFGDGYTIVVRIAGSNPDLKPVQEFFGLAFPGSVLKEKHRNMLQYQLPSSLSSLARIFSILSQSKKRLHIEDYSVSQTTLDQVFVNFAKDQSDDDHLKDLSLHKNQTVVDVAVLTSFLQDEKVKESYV
Consider `C=CCCCC[C@H](NC(=O)[C@H](CCC(=O)O)NC(=O)[C@H](CCC(=O)O)NC(=O)[C@H](CC(N)=O)NC(=O)[C@H](CC(C)C)NC(=O)[C@H](CCCCN)NC(=O)[C@H](CCC(=O)O)NC(=O)[C@H](CCCNC(=N)N)NC(=O)[C@H](Cc1ccccc1)NC(=O)[C@H](CCC(=O)O)NC(=O)[C@H](CC(=O)O)NC(=O)[C@H](CC(C)C)NC(=O)[C@@H](NC(=O)[C@@H]1CCCN1C(C)=O)C(C)C)C(=O)N[C@@H](CCC(=O)O)C(=O)N[C@@H](C)C(=O)N[C@@H](CC(C)C)C(=O)N[C@@H](CCCCN)C(=O)N[C@@H](CCC(N)=O)C(=O)N[C@@H](CCCCN)C(=O)N[C@@H](CC(C)C)C(=O)N[C@@H](CCCCN)C(N)=O`, for which the EC50 is greater than 100 µM.

As for `C=CCCCC[C@@H](NC(=O)[C@H](CCC(=O)O)NC(=O)[C@H](CCC(=O)O)NC(=O)[C@H](CC(N)=O)NC(=O)[C@H](CC(C)C)NC(=O)[C@H](CCCCN)NC(=O)[C@H](CCC(=O)O)NC(=O)[C@H](CCCN=C(N)N)NC(=O)[C@H](Cc1ccccc1)NC(=O)[C@H](CCC(=O)O)NC(=O)[C@H](CC(=O)O)NC(=O)[C@H](CC(C)C)NC(=O)[C@@H](NC(=O)[C@@H]1CCCN1C(C)=O)C(C)C)C(=O)N[C@@H](CCC(=O)O)C(=O)N[C@@H](C)C(=O)N[C@@H](CC(C)C)C(=O)N[C@@H](CCCCN)C(=O)N[C@@H](CCC(N)=O)C(=O)N[C@@H](CCCCN)C(=O)N[C@@H](CC(C)C)C(=O)N[C@@H](CCCCN)C(N)=O`, the EC50 was greater than 100 µM.

Consider `C=CCCCC[C@H](NC(=O)[C@H](CCC(=O)O)NC(=O)[C@H](CC(=O)O)NC(=O)[C@H](CC(C)C)NC(=O)[C@@H](NC(=O)[C@@H]1CCCN1C(C)=O)C(C)C)C(=O)N[C@@H](CCCNC(=N)N)C(=O)N[C@@H](CCC(=O)O)C(=O)N[C@@H](CCCCN)C(=O)N[C@@H](CC(C)C)C(=O)N[C@@H](CC(N)=O)C(=O)N[C@@H](CCC(=O)O)C(=O)N[C@@H](CCC(=O)O)C(=O)N[C@@H](CC(C)C)C(=O)N[C@@H](CCC(=O)O)C(=O)N[C@@H](C)C(=O)N[C@@H](CC(C)C)C(=O)N[C@@H](CCCCN)C(=O)N[C@@H](CCC(N)=O)C(=O)N[C@@H](CCCCN)C(=O)N[C@@H](CC(C)C)C(=O)N[C@@H](CCCCN)C(N)=O`, for which the EC50 was greater than 100 µM.

For the compound `C=CCCCCC[C@H](NC(=O)[C@H](CCC(=O)O)NC(=O)[C@H](CC(N)=O)NC(=O)[C@H](CC(C)C)NC(=O)[C@H](CCCCN)NC(=O)[C@H](CCC(=O)O)NC(=O)[C@H](CCCN=C(N)N)NC(=O)[C@H](Cc1ccccc1)NC(=O)[C@H](CCC(=O)O)NC(=O)[C@H](CC(=O)O)NC(=O)[C@H](CC(C)C)NC(=O)[C@H](CCCCCC=C)NC(=O)[C@@H]1CCCN1C(C)=O)C(=O)N[C@@H](CC(C)C)C(=O)N[C@@H](CCC(=O)O)C(=O)N[C@@H](C)C(=O)N[C@@H](CC(C)C)C(=O)N[C@@H](CCCCN)C(=O)N[C@@H](CCC(N)=O)C(=O)N[C@@H](CCCCN)C(=O)N[C@@H](CC(C)C)C(=O)N[C@@H](CCCCN)C(N)=O` (Ac-P[Ala(5-hexenyl)]LDEFREKLNE[Ala(5-hexenyl)]LEALKQKLK-NH2), the 50% effective concentration (EC50) was 0.4 µM.

As to `C=CCCCC[C@@H](NC(=O)[C@H](CCCCN)NC(=O)[C@H](CCC(=O)O)NC(=O)[C@H](CCCNC(=N)N)NC(=O)[C@H](Cc1ccccc1)NC(=O)[C@H](CCC(=O)O)NC(=O)[C@H](CC(=O)O)NC(=O)[C@H](CC(C)C)NC(=O)[C@@H](NC(=O)[C@@H]1CCCN1C(C)=O)C(C)C)C(=O)N[C@@H](CC(N)=O)C(=O)N[C@@H](CCC(=O)O)C(=O)N[C@@H](CCC(=O)O)C(=O)N[C@@H](CC(C)C)C(=O)N[C@@H](CCC(=O)O)C(=O)N[C@@H](C)C(=O)N[C@@H](CC(C)C)C(=O)N[C@@H](CCCCN)C(=O)N[C@@H](CCC(N)=O)C(=O)N[C@@H](CCCCN)C(=O)N[C@@H](CC(C)C)C(=O)N[C@@H](CCCCN)C(N)=O`, the EC50 was greater than 100 µM.

Consider `C=CCCCCC[C@H](NC(=O)[C@H](C)NC(=O)[C@H](CCC(=O)O)NC(=O)[C@H](CC(C)C)NC(=O)[C@H](CCC(=O)O)NC(=O)[C@H](CCC(=O)O)NC(=O)[C@H](CC(N)=O)NC(=O)[C@H](CC(C)C)NC(=O)[C@H](CCCCN)NC(=O)[C@H](CCC(=O)O)NC(=O)[C@H](CCCNC(=N)N)NC(=O)[C@H](Cc1ccccc1)NC(=O)[C@H](CCC(=O)O)NC(=O)[C@H](CC(=O)O)NC(=O)[C@H](CC(C)C)NC(=O)[C@@H](NC(=O)[C@@H]1CCCN1C(C)=O)C(C)C)C(=O)N[C@@H](CCCCN)C(=O)N[C@@H](CCC(N)=O)C(=O)N[C@@H](CCCCN)C(=O)N[C@@H](CC(C)C)C(=O)N[C@@H](CCCCN)C(N)=O`, for which the EC50 is greater than 100 µM.

Turning to `C=CCCCCC[C@@H](NC(=O)[C@H](CCC(=O)O)NC(=O)[C@H](CC(=O)O)NC(=O)[C@H](CC(C)C)NC(=O)[C@@H](NC(=O)[C@@H]1CCCN1C(C)=O)C(C)C)C(=O)N[C@@H](CCCNC(=N)N)C(=O)N[C@@H](CCC(=O)O)C(=O)N[C@@H](CCCCN)C(=O)N[C@@H](CC(C)C)C(=O)N[C@@H](CC(N)=O)C(=O)N[C@@H](CCC(=O)O)C(=O)N[C@@H](CCC(=O)O)C(=O)N[C@@H](CC(C)C)C(=O)N[C@@H](CCC(=O)O)C(=O)N[C@@H](C)C(=O)N[C@@H](CC(C)C)C(=O)N[C@@H](CCCCN)C(=O)N[C@@H](CCC(N)=O)C(=O)N[C@@H](CCCCN)C(=O)N[C@@H](CC(C)C)C(=O)N[C@@H](CCCCN)C(N)=O`, the EC50 was greater than 100 µM.

Turning to `C=CCCCCC[C@@H](NC(=O)[C@H](CCCCN)NC(=O)[C@H](CCC(N)=O)NC(=O)[C@H](CCCCN)NC(=O)[C@H](CC(C)C)NC(=O)[C@H](C)NC(=O)[C@H](CCC(=O)O)NC(=O)[C@H](CC(C)C)NC(=O)[C@H](CCC(=O)O)NC(=O)[C@H](CCC(=O)O)NC(=O)[C@H](CC(N)=O)NC(=O)[C@H](CC(C)C)NC(=O)[C@H](CCCCN)NC(=O)[C@H](CCC(=O)O)NC(=O)[C@H](CCCNC(=N)N)NC(=O)[C@H](Cc1ccccc1)NC(=O)[C@H](CCC(=O)O)NC(=O)[C@H](CC(=O)O)NC(=O)[C@H](CC(C)C)NC(=O)[C@@H](NC(=O)[C@@H]1CCCN1C(C)=O)C(C)C)C(=O)N[C@@H](CCCCN)C(N)=O`, the EC50 is greater than 100 µM.

Compound `C=CCCCCC[C@@H](NC(=O)[C@H](C)NC(=O)[C@H](CCC(=O)O)NC(=O)[C@H](CC(C)C)NC(=O)[C@H](CCC(=O)O)NC(=O)[C@H](CCC(=O)O)NC(=O)[C@H](CC(N)=O)NC(=O)[C@H](CC(C)C)NC(=O)[C@H](CCCCN)NC(=O)[C@H](CCC(=O)O)NC(=O)[C@H](CCCN=C(N)N)NC(=O)[C@H](Cc1ccccc1)NC(=O)[C@H](CCC(=O)O)NC(=O)[C@H](CC(=O)O)NC(=O)[C@H](CC(C)C)NC(=O)[C@@H](NC(=O)[C@@H]1CCCN1C(C)=O)C(C)C)C(=O)N[C@@H](CCCCN)C(=O)N[C@@H](CCC(N)=O)C(=O)N[C@@H](CCCCN)C(=O)N[C@@H](CC(C)C)C(=O)N[C@@H](CCCCN)C(N)=O` came in with an EC50 greater than 100 µM.

Consider `C=CCCCC[C@H](NC(=O)[C@H](CCC(N)=O)NC(=O)[C@H](CCCCN)NC(=O)[C@H](CC(C)C)NC(=O)[C@H](C)NC(=O)[C@H](CCC(=O)O)NC(=O)[C@H](CC(C)C)NC(=O)[C@H](CCC(=O)O)NC(=O)[C@H](CCC(=O)O)NC(=O)[C@H](CC(N)=O)NC(=O)[C@H](CC(C)C)NC(=O)[C@H](CCCCN)NC(=O)[C@H](CCC(=O)O)NC(=O)[C@H](CCCNC(=N)N)NC(=O)[C@H](Cc1ccccc1)NC(=O)[C@H](CCC(=O)O)NC(=O)[C@H](CC(=O)O)NC(=O)[C@H](CC(C)C)NC(=O)[C@@H](NC(=O)[C@@H]1CCCN1C(C)=O)C(C)C)C(=O)N[C@@H](CC(C)C)C(=O)N[C@@H](CCCCN)C(N)=O`, for which the EC50 was determined as 213 µM.

In turn, `C=CCCCC[C@H](NC(=O)[C@H](CCCCN)NC(=O)[C@H](CCC(=O)O)NC(=O)[C@H](CCCN=C(N)N)NC(=O)[C@H](Cc1ccccc1)NC(=O)[C@H](CCC(=O)O)NC(=O)[C@H](CC(=O)O)NC(=O)[C@H](CC(C)C)NC(=O)[C@@H](NC(=O)[C@@H]1CCCN1C(C)=O)C(C)C)C(=O)N[C@@H](CC(N)=O)C(=O)N[C@@H](CCC(=O)O)C(=O)N[C@@H](CCC(=O)O)C(=O)N[C@@H](CC(C)C)C(=O)N[C@@H](CCC(=O)O)C(=O)N[C@@H](C)C(=O)N[C@@H](CC(C)C)C(=O)N[C@@H](CCCCN)C(=O)N[C@@H](CCC(N)=O)C(=O)N[C@@H](CCCCN)C(=O)N[C@@H](CC(C)C)C(=O)N[C@@H](CCCCN)C(N)=O` had an EC50 greater than 100 µM.

`C=CCCCCC[C@H](NC(=O)[C@H](CCC(=O)O)NC(=O)[C@H](CC(=O)O)NC(=O)[C@H](CC(C)C)NC(=O)[C@@H](NC(=O)[C@@H]1CCCN1C(C)=O)C(C)C)C(=O)N[C@@H](CCCNC(=N)N)C(=O)N[C@@H](CCC(=O)O)C(=O)N[C@@H](CCCCN)C(=O)N[C@@H](CC(C)C)C(=O)N[C@@H](CC(N)=O)C(=O)N[C@@H](CCC(=O)O)C(=O)N[C@@H](CCC(=O)O)C(=O)N[C@@H](CC(C)C)C(=O)N[C@@H](CCC(=O)O)C(=O)N[C@@H](C)C(=O)N[C@@H](CC(C)C)C(=O)N[C@@H](CCCCN)C(=O)N[C@@H](CCC(N)=O)C(=O)N[C@@H](CCCCN)C(=O)N[C@@H](CC(C)C)C(=O)N[C@@H](CCCCN)C(N)=O` yielded an EC50 greater than 100 µM.

In the case of `C=CCCCCC[C@H](NC(=O)[C@H](CCC(=O)O)NC(=O)[C@H](CCCN=C(N)N)NC(=O)[C@H](Cc1ccccc1)NC(=O)[C@H](CCC(=O)O)NC(=O)[C@H](CC(=O)O)NC(=O)[C@H](CC(C)C)NC(=O)[C@@H](NC(=O)[C@@H]1CCCN1C(C)=O)C(C)C)C(=O)N[C@@H](CC(C)C)C(=O)N[C@@H](CC(N)=O)C(=O)N[C@@H](CCC(=O)O)C(=O)N[C@@H](CCC(=O)O)C(=O)N[C@@H](CC(C)C)C(=O)N[C@@H](CCC(=O)O)C(=O)N[C@@H](C)C(=O)N[C@@H](CC(C)C)C(=O)N[C@@H](CCCCN)C(=O)N[C@@H](CCC(N)=O)C(=O)N[C@@H](CCCCN)C(=O)N[C@@H](CC(C)C)C(=O)N[C@@H](CCCCN)C(N)=O`, the EC50 is greater than 100 µM.

Turning to `C=CCCC[C@@H](NC(=O)[C@H](CCC(=O)O)NC(=O)[C@H](CC(=O)O)NC(=O)[C@H](CC(C)C)NC(=O)[C@@H](NC(=O)[C@@H]1CCCN1C(C)=O)C(C)C)C(=O)N[C@@H](CCCNC(=N)N)C(=O)N[C@@H](CCC(=O)O)C(=O)N[C@@H](CCCCN)C(=O)N[C@@H](CC(C)C)C(=O)N[C@@H](CC(N)=O)C(=O)N[C@@H](CCC(=O)O)C(=O)N[C@@H](CCC(=O)O)C(=O)N[C@@H](CC(C)C)C(=O)N[C@@H](CCC(=O)O)C(=O)N[C@@H](C)C(=O)N[C@@H](CC(C)C)C(=O)N[C@@H](CCCCN)C(=O)N[C@@H](CCC(N)=O)C(=O)N[C@@H](CCCCN)C(=O)N[C@@H](CC(C)C)C(=O)N[C@@H](CCCCN)C(N)=O`, the 50% effective concentration (EC50) was greater than 100 µM.

These data come from ChEMBL document CHEMBL1629456, “ApoA-I mimetic peptides promote pre-β HDL formation in vivo causing remodeling of HDL and triglyceride accumulation at higher dose” (Bioorg Med Chem, 2010).
